Where a name gives a salt, the structure may show the parent alone. Read-outs that look alike come from different tables or passages of the source.
Experiments:
[1] = Dog pharmacokinetics, powder in capsule; format: in vivo, beagle dogs
Method: Groups, Dosing, and Collection. The pharmacokinetics of the free acid and the tris salt of Compound 1 administered by oral capsules was assessed in dogs. Three male beagle dogs were administered a single dose of 3 mg/kg Compound 1 free acid on Day 1 of the study, and a single dose of 3 mg/kg Compound 1 tris salt on Day 8 of the study. Plasma was collected pre-dose, and at 0.5, 1, 2, 4, 8, 12 and 24 hours post-dose via puncture of peripheral veins.
LC MS-MS Analysis. Liquid Chromatography with tandem mass spectrometry was used to determine plasma concentrations of Compound 1 Free Acid and Compound 1 Tris Salt in plasma samples collected at prescribed time points. Instrumentation included YMC-Triart C18, S-5 μm (50×2.1 mm) HPLC column, liquid chromatograph Shimadzu LC-30AD with communications bus module CBM-20A and Auto SIL-20AC HT; and a Triple Quad 5500 LC/MS/MS instrument. Tolbutamide was used as an internal standard.

[2] = 28-day repeat-dose toxicity study in rats; format: in vivo; conditions: Sprague Dawley, rat; for AUC(0-t) / Cmax: plasma; for AUC(0-t): read-out: AUC0-24 at NOAEL; for Cmax: read-out: Cmax at NOAEL
Method: Compound 1 was administered to Sprague Dawley rats by oral gavage at doses of 25, 75, and 250 mg/kg/day (females) and 40, 120, and 400 mg/kg/day (males) for 28 days. Compound 1-related mortality occurred in 8 of the 15 toxicity males administered 400 mg/kg/day beginning on Day 8 through 24. […] Target tissues included bone marrow, spleen, thymus, liver, lymph nodes, epididymides, seminal vesicles, prostate, testes, uterus, and ovaries.
(§1) Compound 1 tris salt was evaluated for safety in 7- and 28-day studies in rats and dogs. […] The NOAELs for this rat study were 120 mg/kg/day for males and 75 mg/kg/day for females. […] The NOAEL determined in the 28-day dog GLP study was 150 mg/kg/day. These correspond to human equivalent doses (HEDs) of: • Rat: 75 mg/kg×0.16=12 mg/kg • Dog: 150 mg/kg×0.54=81 mg/kg

[3] = in vivo; set-up: species or system beagle dogs; conditions: both sexes, beagle, dog
Method: Compound 1 was administered to beagle dogs by oral gavage in a range finding study at doses of 30, 79, 240, or 790 mg/kg. […] Compound 1 was administered at doses of 10, 50, and 150 mg/kg/day in the pivotal repeat dose toxicity studies for 28 days.
as §1

[4] = male, beagle, dog, plasma, po, 3 mg/kg, male beagle dogs, powder in capsule, mean
[5] = male beagle dogs, powder in capsule, 3 mg/kg, mean

| Structure (SMILES) | Clinical symptoms ([1]; dogs, single 3 mg/kg oral capsule dose) | ClF ([1]; male beagle dogs, powder in capsule, 3 mg/kg, mean, listed as Free Acid) | MRT last [1, 4] [h] | half-life [1, 4] [h] | NOAEL at 28 days ([2]; in vivo, male rats, 28 days oral gavage, read-out: NOAEL) [mg/kg/day] | AUC(0-t) ([2]; po, female rats, 75 mg/kg/day) [µg·h/mL] | Cmax ([2]; po, female rats, 75 mg/kg/day) [µg/mL] | AUC(0-t) ([2]; po, male rats, 120 mg/kg/day) [µg·h/mL] | Cmax ([2]; po, male rats, 120 mg/kg/day) [µg/mL] | NOAEL at 28 days ([2]; female, in vivo, po) [mg/kg/day] | NOAEL at 28 days [3] [mg/kg/day] | Half-life compared to free acid ([1]; dogs) | Mean residence time compared to free acid ([1]; dogs) | Total drug exposure across time (AUClast and AUCInf) compared to free acid ([1]; dogs, powder in capsule and suspension formulations) | ClF [1, 5] | MRTlast [1, 5] [h] | T1/2 [1, 5] [h] | Human equivalent dose of NOAEL at 28 days ([2]; female, in vivo, 75 mg/kg) [mg/kg] | Human equivalent dose of NOAEL at 28 days ([3]; 150 mg/kg) [mg/kg] |
| --- | --- | --- | --- | --- | --- | --- | --- | --- | --- | --- | --- | --- | --- | --- | --- | --- | --- | --- | --- |
| CC(C)(OCc1cc(-c2cccc(OC3CCC3)c2)n(-c2ccccc2N2CCC2)n1)C(=O)O [Compound 1, 2-((1-(2-(azetidin-1-yl)phenyl)-5-(3-cyclobutoxyphenyl)-1H-pyrazol-3-yl)methoxy)-2-methylpropanoic acid] | No abnormal clinical symptoms were observed | 2505 | 5.39 | 6.33 | 120 | 3230 | 198 | 2780 | 180 | 75 | 150 |  |  |  |  |  |  |  |  |
| CC(C)(OCc1cc(-c2cccc(OC3CCC3)c2)n(-c2ccccc2N2CCC2)n1)C(=O)O [Compound 1 tris salt, tris salt of 2-((1-(2-(azetidin-1-yl)phenyl)-5-(3-cyclobutoxyphenyl)-1H-pyrazol-3-yl)methoxy)-2-methylpropanoic acid] |  |  |  |  |  |  |  |  |  |  |  | lower | increased | higher | 756 | 7.89 | 3.63 | 12 | 81 |

— patent publication US20250179049A1, “SALTS OF HETEROCYCLIC INHIBITORS OF MONOCARBOXYLATE TRANSPORTER 4 FOR THE TREATMENT OF DISEASE” (Vettore, LLC, priority 2022, published 2025)
